Values quoted from earlier work as cited in US20260015580A1, “Methods of Producing and Using Avian Embryonic Stem Cells and Avian Telencephalic Organoids” (The Regents of the University of California, priority 2022, published 2026).

System: phosphorylation of ERK in C26 cells
Conditions: read-out: IC50, suppressing the phosphorylation of ERK

Compound: O=C(NOC[C@H](O)CO)c1ccc(F)c(F)c1Nc1ccc(I)cc1F [PD0325901]
- IC50: 330 pM
